Columns and labels:
[1] = test system: neuromuscular transmission blocked with pancuronium bromide (rat phrenic nerve-hemidiaphragm); assay: Rat hemidiaphragm: antagonism of pancuronium blockade in vitro; set-up: species or system male Wistar rats; conditions: for EC50: 90% block by pancuronium bromide about 8×10^-6 M, 37° C., cumulative addition, read-out: EC50 (concentration that produces a 50% antagonism)
Experimental: Left hemidiaphragms with their phrenic nerves were removed from male Wistar rats weighing 280-320 g. and were mounted in an organ bath, containing Krebs solution, maintained at 37° C. and gassed with oxygen containing 5% CO2. The nerve was stimulated at a frequency of 0.1 Hz via electrodes with rectangular pulses of 0.3 ms duration and of a strength greater than that required to reproduce maximal twitch.

guinea-pig ileum = assay: Ileum of the guinea pig: activity on smooth muscle; conditions: for pD2 (negative logarithm of the dose required to produce 50% of the maximum response): compared to maximal contraction by 2×10^-7 M carbochol, 37° C.
Experimental: This preparation tests the pharmacological activity on smooth muscle (Moritoki, Takei, Makomoto and Ishida, Arch. Int. Pharmacodyn. Ther. 232, 28 (1978).
The […] of the ileum was measured. This is compared to the maximal contraction caused by carbochol. From dose response curves the following pD2 values were determined (the pD2 value is the negative logarithm of the dose required to produce 50% of the maximum response).
Segments of guinea-pig ileum of 3 to 4 cm. length from 10 cm above the ileocaecal junction were used. The oral end of each segment was fixed to a hook and the distal end was connected to an isotonic transducer with a 1 g counterweight. The preparation was then immersed to an organ bath (25 ml) at 37° C. containing Krebs solution and bubbled with oxygen containing 5% CO2. After an equilibration time of about 1 hour, 2×10^-7 M carbochol was added to the bath for maximal contraction. After wash out (2×) the drugs were added cumulatively to the bath.

[2] = test system: ketamine-xylazine narcosis; assay: Antagonism of ketamine-xylazine narcosis (central effects); type: in vivo, Rats
Experimental: This is a method of testing the central effects of the aminopyridines.
Rats were anaesthetized with xylazine (0.05 ml of a 2% soln, s.c.) and ketamine (0.1 ml of a soln, i.p.). After 10 min. the aminopyridines (1 mg./kg) were administered, i.v. The time required for "full recovery" (i.e. turning over and crawling) was measured. Groups of 10 rats were used for each treatment.

central nervous system = conditions: in vivo; cited from earlier work
[3] = test system: neuromuscular block by pancuronium bromide (sciatic nerve-anterior tibialis); assay: Rat sciatic nerve-anterior tibialis preparation: antagonism of neuromuscular block in vivo; set-up: species or system Rats; conditions: for ED50: Rattus norvegicus, iv, 10 min, read-out: ED50 (dose of drug producing a 50% antagonism), constant pancuronium infusion, 90-95% depression of twitch tension, cumulative dosing, 10 min interval
Experimental: This preparation is used to test the antagonistic action of aminopyridines against neuromuscular blocking agents in vivo. (Miller, Denissen, van der Pol, Agoston, Booy and Crul, J. Pharm. Pharmacol. 30, 699 (1978)).
Rats were administered a constant infusion of pancuronium bromide and when a constant block was achieved, one of the aminopyridines was administered. The ED50 's (dose of drug producing a 50% antagonism) were determined.
Rats (280-320 g) were anaesthetized with pentobarbital. Both jugular veins were cannulated for administration of drugs. A caratoid artery was cannulated for measurement and recording of arterial blood pressure. The trachea was intubated and ventilation controlled by means of a Braun air pump. The tendon of the left tibialist was freed, sectioned and connected to a force displacement transducer. The sciatic nerve was stimulated by supramaximal 0.1 Hz stimuli of 0.2 msec duration through a bipolar electrode. Twitch tension was recorded on a polygraph. The temperature of the rat was maintained at 37° C. with heating lamps. Pancuronium bromide was administered intravenously by continuous infusion until 90-95% depression of twitch tension was obtained. This infusion speed was maintained during the whole experiment. When the block was steady for at least 15 min one of the drugs was given cumulatively with 10 min interval.

rat heart = assay: Isolated heart of the rat: positive inotropic action; set-up: species or system male Wistar rats; conditions: for changes in frequency or E.C.G.: same perfusion as L.V.P.
Experimental: This preparation evaluates the positive inotropic action of a drug (Koomen, van Gilst, Zimmerman and Noordwijk, Arch. Int. Pharmacodyn. Ther. 255, 212 (1982)).
Solutions of the aminopyridines were added to the perfusion solution of the rat heart. The left ventricular pressure (L.V.P.) was recorded in order to evalute the positive inotropic action. Frequency and E.C.G. were also monitored. Male Wistar rats (270-300 g) were anaesthetized with diethyl ether. After heparinization the hearts were quickly removed. Subsequently the heart was perfused according to the method of Langendorff. The perfusion fluid contained: NaCl 128 mM; KCl 4.7 mM; CaCl2 1.35 mM; MgCl2 1.05 mM; NaHPO4 0.42 mM; NaHCO3 20.2 mM; glucose 11.1 mM. The pH of the perfusion fluid after aeration with 95% O2 --5% CO2 was 7.35±0.05 (37° C.). L.V.P. was measured by means of a catheter inserted in the left ventricule and connected to a pressure transducer. A biopolar E.C.G. was obtained by means of two silver electrodes: one attached to the metal inflow cannula and the other to the ventricular apex. Coronary flow (volume of perfusion fluid per time unit) was measured by a microprocessor, which controlled the perfusion pressure by adjusting the peristaltic perfusion pump.

mice [4] = conditions: i.p., Vohra et al., J. Med. Chem. 8, 296 (1965); cited from earlier work
mice [5] = assay: Acute toxicity (LD50), intraperitoneal, mice; type: in vivo; conditions: from LD50 values
Experimental: Moreover, the LD50 values for intraperotoneal 4-AP and 3,4-DAP in mice are 10 mg./kg. and 20 mg./kg., respectively (Vohra, et al. J. Med. Chem 8, 296-304 (1965)). The LD50 dosage corresponds to a lethal dose in 50% of the animals treated. Thus, although not as toxic as 4-AP, 3,4-DAP suffers from the similar disadvantage of high toxicity at dosage levels near those that would be used in therapy.

[6] = 4-AP compared with 3,4-DAP; cited from earlier work
[7] = test system: potassium channel in axonal membranes; conditions: cited from earlier work
[8] = test system: neuromuscular blocking drugs; conditions: with neostigmine and pyridostigmine; cited from earlier work
[9] = in vitro; vs 4-AP; cited from earlier work

Compound	EC50 [1] [µM]	pD2 (negative logarithm of the dose required to produce 50% of the maximum response) (guinea-pig ileum)	convulsions, central adverse effects (central nervous system)	ED50 [3] [mg/kg]	changes in frequency or E.C.G. (rat heart)	LD50 (mice [4]) [mg/kg]	toxicity relative to 2,4-DAP (mice [5])	action in vivo [6]	further results
Nc1ccnc(N)c1 [2,4-Diaminopyridine, 2,4-diaminopyridine]	15	4.52	has not been shown to cause convulsions	0.14	No changes in frequency or E.C.G. were noted				potency relative to 3,4-diaminopyridine ([1]; vs 3,4-diaminopyridine): about the same potency as 3,4-diaminopyridine; potency relative to 4-aminopyridine ([1]; vs 4-aminopyridine): about 3.5 times more potent; potency relative to 4-aminopyridine (guinea-pig ileum; vs 4-aminopyridine): slightly more potent than 4-aminopyridine; recovery compared with saline controls ([2]; 1 mg./kg, vs saline controls): did not differ significantly from controls receiving saline; central actions relative to 3,4-diaminopyridine ([2]; vs 3,4-diaminopyridine): somewhat weaker than those of 3,4-diaminopyridine; central actions relative to 4-aminopyridine ([2]; vs 4-aminopyridine): much weaker than those of 4-aminopyridine; potency relative to 3,4-diaminopyridine ([3]; vs 3,4-diaminopyridine): about twice as potent as 3,4-diaminopyridine; potency relative to 4-aminopyridine ([3]; vs 4-aminopyridine): about 3 times more potent; increase of left ventricular pressure (L.V.P.) (rat heart; 5×10^-6 mol/l to 10^-4 mol/l): up to 50%; effectiveness relative to 4-aminopyridine (rat heart; vs 4-aminopyridine): significantly more effective than 4-aminopyridine
Nc1ccncc1 [4-Aminopyridine, 4-aminopyridine]	55	4.30	hypertension and convulsions at dosage levels only slightly exceeding the clinical dosage	0.45	No changes in frequency or E.C.G. were noted	10	an order of magnitude more toxic than the compound of the present invention	almost the same	potassium channel blocking action [7]: potassium channel blocking action in axonal membranes; increase of left ventricular pressure (L.V.P.) (rat heart; 2×10^-5 to 1×10^-4 mol/l): up to 40%; potentiation of anticholinesterase drugs [8]: potentiates anticholinesterase drugs
Nc1ccncc1N [3,4-Diaminopyridine, 3,4-diaminopyridine]	10		tendency to cause convulsions	0.25		20	an order of magnitude more toxic than the compound of the present invention	almost the same	peripheral and central action relative to 4-AP [9]: stronger peripheral action and less central action than 4-AP in vitro
